Experimental data taken from publication PMC12501029, “Discovery of a CNS active GSK3 degrader using orthogonally reactive linker screening” (Nature Communications, 2025).

Key:
GSK3α = biological target: T1, GSK3α (Homo sapiens, UniProt P49840); assay: Immunoblot degradation of endogenous GSK3α in HEK293 cells; assay type: cell-based; conditions: 10 nM, 2 h
T1 construct: Endogenous GSK3 paralog degradation with compounds 24 and 26 and negative controls 27 and 28 in HEK293 cells; host or cells: HEK293
Protocol: (§1) HEK293, HAP1, HAP1 CRBN KO and SH-SY5Y cells were plated in either 6 cm plates or 6-well plates at varying densities (0.5–0.7 × 10^6 cells per plate or wells), and MEF cells were plated in 10 cm plates (1–1.2 × 10^6 cells per plate) depending on experimental set up in respective culturing condition as described above. Stock solutions of compounds were prepared as 10 mM in DMSO (Sigma–Aldrich). Working dilutions were made up fresh in DMSO and culturing media or differentiation media was refreshed prior to any compound treatments. For mode of action studies, cells were pre-treated with inhibitors for 2 h: 1 µM MG132 (Merck, 474790-5 mg), 1 µM MLN4924 (Merck, 5054770001) or 1 µM GSK3 inhibitor (compound 29), before treating with PROTACs for 2, 4 or 24 h as indicated in figure legends. Cells were washed twice with ice-cold PBS (Gibco), harvested in PBS and pelleted, cells were resuspended in RIPA buffer supplemented with complete EDTA-free protease inhibitor cocktail (Roche,11873580001, 1/10 mL) and phosSTOP (Roche, 04906845001, 1 tablet/10 mL) for 20 min lysis on ice then cleared via centrifugation at 16,000 × g, 4 °C for 20 min. […] Following clearance of lysates, protein concentrations were determined by the BCA assay (Fisher Scientific, 23225) or Bradford assay (Bio-rad). […]

GSK3β = biological target: T2, GSK3β (Homo sapiens, UniProt P49841); assay: Immunoblot degradation of endogenous GSK3β in HEK293 cells; assay type: cell-based; conditions: 10 nM; for endogenous GSK3β degradation: 2 h, HEK293
T2 construct: PROTAC-mediated degradation of untagged, endogenous GSK3β in HEK293 cells; host or cells: HEK293
Protocol: HEK293, HAP1, HAP1 CRBN KO and SH-SY5Y cells were plated in either 6 cm plates or 6-well plates at varying densities (0.5–0.7 × 10^6 cells per plate or wells), and MEF cells were plated in 10 cm plates (1–1.2 × 10^6 cells per plate) depending on experimental set up in respective culturing condition as described above. Stock solutions of compounds were prepared as 10 mM in DMSO (Sigma–Aldrich). Working dilutions were made up fresh in DMSO and culturing media or differentiation media was refreshed prior to any compound treatments. For mode of action studies, cells were pre-treated with inhibitors for 2 h: 1 µM MG132 (Merck, 474790-5 mg), 1 µM MLN4924 (Merck, 5054770001) or 1 µM GSK3 inhibitor (compound 29), before treating with PROTACs for 2, 4 or 24 h as indicated in figure legends. Cells were washed twice with ice-cold PBS (Gibco), harvested in PBS and pelleted, cells were resuspended in RIPA buffer supplemented with complete EDTA-free protease inhibitor cocktail (Roche,11873580001, 1/10 mL) and phosSTOP (Roche, 04906845001, 1 tablet/10 mL) for 20 min lysis on ice then cleared via centrifugation at 16,000 × g, 4 °C for 20 min. SH-SY5Y cells were lysed in 500 µL ice-cold lysis buffer (25 mM Tris-HCl (pH 7.4), 50 mM NaF, 100 mM NaCl, 1 mM EDTA, 4 mM EGTA, 1% (v/v) Triton-X-100, 0.09% (w/v) sucrose, 10 mM sodium pyrophosphate, 10 mM sodium vanodate, 0.1% (v/v) β-mercaptoethanol, supplemented with complete mini protease inhibitor tablet (Sigma; 1 tablet/ 10 mL buffer)). Lysates were flash frozen, thawed and centrifugated at 16,000 × g, 4 °C for 20 min. Following clearance of lysates, protein concentrations were determined by the BCA assay (Fisher Scientific, 23225) or Bradford assay (Bio-rad). Five to thirty micrograms of protein from lysates were prepared in 4×LDS buffer (Thermo Fisher) and 50 mM dithiothreitol (DTT) denaturated at 95 °C for 5 min. […]

GSK3 = assay: Mode of action rescue studies in HEK293 cells (pre-treatment with MG132, MLN4924 or GSK3 inhibitor 29); assay type: cell-based, human; conditions: 2 h pre-treatment, 1 µM each inhibitor
Protocol: as §1

GSK3β-HiBiT = biological target: T3, GSK3β-HiBiT (Homo sapiens, UniProt P49841); assay: Kinetic live cell degradation assay (LgBit transfected GSK3β-HiBiT KI HEK293 cells); assay type: cell-based
T3 construct: we generated endogenously tagged GSK3β-HiBiT knock-in (KI) HEK293 cells; endogenous in cells; host or cells: GSK3β-HiBiT KI HEK293 cells, transiently transfected with LgBit (Promega)
Protocol: For kinetic degradation assays, GSK3β-HiBiT KI HEK293 cells were reverse transfected into white bottom opaque 96-well assay plates. Briefly, GSK3β-HiBiT KI HEK293 cell suspension at a density of 2 × 10^6 per mL was prepared in standard culturing media. 10 mL of cell suspension mixed with transfection mix (1 mL of OptiMEM (Gibco) containing 3:1 ratio of FuGENE HD (Promega) and LgBit (Promega)). Then, cells were seeded into 96-well assay plate as a 100 µL cell suspension per well. After 24 h of transfection, the cell media was removed and 90 µL of CO2-independent medium supplemented with 10% FBS (Gibco) and 1:100 dilution of Endurazine (Promega) and incubated for 2.5 h at 37 °C. Test compounds were added onto cells and luminescence signals were monitored and recorded on GloMAX discover plate reader (Promega) in kinetic mode every 5 min. Data were normalised to DMSO conditions and plotted over time and degradation rates were calculated via Michaelis–Menten non-linear fitting analysis using GraphPad Prism (v10.1.2).

T2 sequence (P49841 whole entry): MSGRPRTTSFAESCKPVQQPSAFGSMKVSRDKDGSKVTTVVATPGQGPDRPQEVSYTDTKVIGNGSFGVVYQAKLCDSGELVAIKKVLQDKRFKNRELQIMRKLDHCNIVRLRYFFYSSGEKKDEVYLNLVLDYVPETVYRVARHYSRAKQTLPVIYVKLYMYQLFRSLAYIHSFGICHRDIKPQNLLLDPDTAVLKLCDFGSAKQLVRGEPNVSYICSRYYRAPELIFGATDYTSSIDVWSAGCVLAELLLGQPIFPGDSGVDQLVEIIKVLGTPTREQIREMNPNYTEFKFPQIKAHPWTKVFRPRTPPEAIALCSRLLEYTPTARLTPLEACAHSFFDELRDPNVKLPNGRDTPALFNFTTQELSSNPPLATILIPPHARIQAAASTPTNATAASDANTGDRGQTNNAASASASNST
T1 sequence (P49840 whole entry): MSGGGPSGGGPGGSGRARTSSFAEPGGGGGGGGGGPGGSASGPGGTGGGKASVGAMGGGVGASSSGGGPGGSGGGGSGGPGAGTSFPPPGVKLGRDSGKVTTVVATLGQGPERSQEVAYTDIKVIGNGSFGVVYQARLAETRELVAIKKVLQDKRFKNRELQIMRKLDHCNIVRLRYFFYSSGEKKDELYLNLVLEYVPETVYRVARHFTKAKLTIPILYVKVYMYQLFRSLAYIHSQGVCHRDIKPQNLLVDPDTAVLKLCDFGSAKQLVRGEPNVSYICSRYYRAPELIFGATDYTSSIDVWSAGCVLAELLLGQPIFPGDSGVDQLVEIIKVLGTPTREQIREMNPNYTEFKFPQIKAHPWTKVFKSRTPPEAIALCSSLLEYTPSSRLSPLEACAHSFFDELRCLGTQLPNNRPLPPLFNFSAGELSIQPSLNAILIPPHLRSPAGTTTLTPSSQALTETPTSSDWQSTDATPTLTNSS
T3 sequence (P49841 whole entry): as the sequence (P49841 whole entry) above
T3 sequence (Q96SW2 whole entry partner): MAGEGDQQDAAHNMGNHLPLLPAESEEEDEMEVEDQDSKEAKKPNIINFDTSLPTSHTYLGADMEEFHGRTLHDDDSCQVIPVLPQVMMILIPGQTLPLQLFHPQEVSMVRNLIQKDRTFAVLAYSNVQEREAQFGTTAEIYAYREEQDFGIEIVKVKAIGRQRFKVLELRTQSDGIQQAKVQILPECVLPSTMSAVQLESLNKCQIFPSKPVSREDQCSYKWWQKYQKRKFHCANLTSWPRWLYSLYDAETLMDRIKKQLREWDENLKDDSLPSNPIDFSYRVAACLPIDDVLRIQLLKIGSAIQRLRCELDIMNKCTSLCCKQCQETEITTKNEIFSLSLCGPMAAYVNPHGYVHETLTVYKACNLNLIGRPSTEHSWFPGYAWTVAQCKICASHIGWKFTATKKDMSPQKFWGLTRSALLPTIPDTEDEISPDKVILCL

| Compound | endogenous GSK3α degradation (GSK3α) | impact on GSK3 levels (GSK3β; 30 min, HEK cells) | endogenous GSK3β degradation (GSK3β) | GSK3 degradation in presence of MG132, MLN4924 or GSK3 inhibitor 29 (GSK3) | maximal degradation rate (λmax) (GSK3β-HiBiT; live cell, Michaelis-Menten fit) | degradation of GSK3β in live cells (GSK3β-HiBiT; 10 nM, after 2 h) |
| --- | --- | --- | --- | --- | --- | --- |
| Cn1nc(N2CCC(=O)NC2=O)c2ccc(CN3CCN(Cc4ccc(-c5cn(-c6ccc(-c7cn8nccc(C(=O)Nc9cnccc9N9CCOCC9)c8n7)cc6)nn5)nc4)CC3)cc21 [compound 24] | almost complete | little impact | almost complete removal | rescued | ~ 1.0 h^−1 | – |
| Cn1nc(N2CCC(=O)NC2=O)c2ccc(CN3CCN(CCCc4cn(-c5ccc(-c6cn7nccc(C(=O)Nc8cnccc8N8CCOCC8)c7n6)cc5)nn4)CC3)cc21 [compound 26] | almost complete | – | almost complete | rescued | – | almost complete degradation |
